{"source": "patent US5663168A", "about": "“Use of compositions for combating tumour diseases” (CIBA-Geigy Corporation, priority 1993, dated 1997)", "tested_on": "human mammary carcinoma of the MCF-7 line", "experiment": "Inhibition of the growth of a human mammary carcinoma in the mouse model", "type": "in vivo, Balb/c nu/nu-mice", "experimental": "2×6 female Balb/c nu/nu-mice (Bomholtgard, oestrogen-stimulated with 5 mg of oestradiol in a perforated plastics tube \"Silastic®\" (Dow Chemical, Michigan, USA)) are implanted with tumours by subcutaneous transplantation of fragments of human mammary carcinoma (about 25 mg) of the MCF-7 line (American Type Culture Collection, Maryland, USA; see H. D. Soule et al., J. Nat. Cancer Inst. 51, 1409-1416 (1973)). After the tumours have grown to a volume of about 30 to 100 mm^3 (after 13 days), 6 mice (test group) are each given twice dally over a period of 25 days a dose of 50 mg/kg of Boc-Phe[C]Phe-(L)-Val-(L)-Phe-morpholin-4-ylamide (dissolved in a concentration of 2 mg/ml in a 5% solution of dimethyl sulfoxide and 20% hydroxypropyl-β-cyclodextrin in water, prepared by dissolution of the test compound in dimethyl sulfoxide and dilution with aqueous hydroxypropyl-β-cyclodextrin solution). […] After 25 days (50 administrations) the following tumour volumes (mean value) are determined:\nThe tumour growth is determined by measuring the diameter along the longitudinal axis of the tumour (L) and perpendicular thereto (D) (in a living animal by means of a calliper gauge). The tumour volumes are calculated in accordance with the formula π×L×D^2 /6 (Evans, B. D., et al., Brit. J. Cancer 45, 466-468 (1982)).", "data": [{"substance": "Boc-Phe[C]Phe-(L)-Val-(L)-Phe-morpholin-4-ylamide", "values": [{"measurement": "tumour growth in comparison with the control group", "setting": "MCF-7 tumours in female Balb/c nu/nu-mice, 50 mg/kg orally twice daily for 25 days", "value": "marked reduction in tumour growth"}, {"measurement": "tumour volume (mean value)", "setting": "subcutaneous MCF-7 tumour fragments in oestrogen-stimulated female Balb/c nu/nu-mice, 50 mg/kg orally twice daily, after 25 days (50 administrations), placebo control 0.96 cm^3", "value": 0.30, "unit": "cm^3"}]}]}
